Data reported in patent publication US10760052B2, “Method of inhibiting tau phosphorylation” (priority 2012, dated 2020).
Where two headings read alike, the source gives them in different places.

Biological target: T1, mu opiate receptor (MOR) (Rattus norvegicus, UniProt P33535)
T1 construct: from tissue; host or cells: striatum (membrane preparation)
Type: biochemical

[1] = [35S]GTPγS binding to Gαo in striatal membranes, compound 0.1 μM
[2] = [35S]GTPγS binding to Gαo in striatal membranes, compound 1 μM
[3] = [35S]GTPγS binding to Gαo in striatal membranes, compound 1 μM plus 1 μM β-funaltrexamine (MOR antagonist)

T1 sequence (P33535 whole entry): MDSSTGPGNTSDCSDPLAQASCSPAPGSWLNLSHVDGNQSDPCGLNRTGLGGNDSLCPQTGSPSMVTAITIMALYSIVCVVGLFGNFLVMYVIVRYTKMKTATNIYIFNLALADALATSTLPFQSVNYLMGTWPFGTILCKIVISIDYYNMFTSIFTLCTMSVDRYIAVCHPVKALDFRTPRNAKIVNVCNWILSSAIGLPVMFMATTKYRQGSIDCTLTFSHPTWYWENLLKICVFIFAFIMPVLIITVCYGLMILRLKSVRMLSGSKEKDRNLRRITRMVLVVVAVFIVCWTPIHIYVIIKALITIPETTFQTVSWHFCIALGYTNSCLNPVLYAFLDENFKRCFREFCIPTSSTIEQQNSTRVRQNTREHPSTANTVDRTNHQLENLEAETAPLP

Compound | % DAMGO (0.1 μM) [%] | % DAMGO (1 μM) [%] | % DAMGO + BFNA [%] | Concentration of FLNA-Binding Compound as Agonist 0.1 μM [1] [%] | Concentration of FLNA-Binding Compound as Agonist 1 μM [2] [%] | Concentration of FLNA-Binding Compound as Agonist 1 μM + BFNA [3] [%] | Concentration of FLNA-Binding Compound as Agonist 0.1 μM [%] | Concentration of FLNA-Binding Compound as Agonist 1 μM [%] | Concentration of FLNA-Binding Compound as Agonist 1 μM + BFNA [%] | [35S]GTPγS binding, FLNA-Binding Compound as Agonist at 0.1 μM [%] | [35S]GTPγS binding, FLNA-Binding Compound as Agonist at 1 μM [%] | [35S]GTPγS binding, FLNA-Binding Compound as Agonist at 1 μM + BFNA [%]
COc1ccc(CCC(O)CC2c3c(cc4c(c3OC)OCO4)CC[N+]2(C)C)cc1 (stereo not drawn) [Compound B0049] | 102.8 | 143.1 | 506.5 | 181.6 | 364.0 | 133.2 |  |  |  |  |  | 
COc1c2c(cc3c1C(CC(=O)CCc1ccccc1)N(C)CC3)OCO2 (stereo not drawn) [Compound B0050] | 58.1 | 96.4 | 294.0 | 98.2 | 211.0 | 48.8 |  |  |  |  |  | 
COc1c2c(cc3c1C(CC(O)CCc1ccccc1)N(C)CC3)OCO2 (stereo not drawn) [Compound B0051] | 68.4 | 76.7 | 263.9 | 115.6 | 167.9 | 43.8 |  |  |  |  |  | 
COc1c2c(cc3c1C(CC(O)CCc1ccccc1)[N+](C)(C)CC3)OCO2 (stereo not drawn) [Compound B0052] | 58.1 | 69.3 | 246.4 | 98.2 | 151.7 | 40.9 |  |  |  |  |  | 
COc1c2c(cc3c1C(CC(=O)Cc1ccccc1C)N(C)CC3)OCO2 (stereo not drawn) [Compound B0053] | 94.8 | 137.0 | 809.0 | 160.2 | 299.8 | 134.3 |  |  |  |  |  | 
COc1c2c(cc3c1C(CC(=O)Cc1ccccc1F)[N+](C)(C)CC3)OCO2 (stereo not drawn) [Compound B0055] | 91.8 | 133.1 | 446.8 | 162.1 | 338.5 | 117.5 |  |  |  |  |  | 
COc1ccc(CCCCC2c3c(cc4c(c3OC)OCO4)CC[N+]2(C)C)cc1 (stereo not drawn) [Compound B0056] | 98.9 | 113.6 | 158.9 | 174.7 | 288.8 | 41.8 |  |  |  |  |  | 
Cc1ccc(S(=O)(=O)N2CCC3(CC2)OCCN3S(=O)(=O)c2ccc(C)cc2)cc1 [Compound C0001] | 75.2 | 66.6 | 52.9 | 129.3 | 184.3 | 33.9 |  |  |  |  |  | 
COc1cccc(S(=O)(=O)N2CCC3(CC2)OCCN3S(=O)(=O)c2cccc(OC)c2)c1 [Compound C0002] | 51.4 | 33.9 | 6.1 | 88.4 | 93.8 | 3.9 |  |  |  |  |  | 
COc1ccccc1S(=O)(=O)N1CCC2(CC1)OCCN2S(=O)(=O)c1ccccc1OC [Compound C0003] | 91.9 | 83.3 | 163.9 | 162.3 | 215.9 | 107.7 |  |  |  |  |  | 
N#Cc1ccccc1S(=O)(=O)N1CCC2(CC1)OCCN2S(=O)(=O)c1ccccc1C#N [Compound C0004] | 72.1 | 85.4 | 99.7 | 122.0 | 228.4 | 65.8 |  |  |  |  |  | 
O=S(=O)(c1cccc(OC(F)(F)F)c1)N1CCC2(CC1)OCCN2S(=O)(=O)c1cccc(OC(F)(F)F)c1 [Compound C0005] | 105.4 | 85.1 | 319.4 | 180.4 | 227.2 | 166.4 |  |  |  |  |  | 
O=S(=O)(c1ccc(OC(F)(F)F)cc1)N1CCC2(CC1)OCCN2S(=O)(=O)c1ccc(OC(F)(F)F)cc1 [Compound C0006] | 70.6 | 73.8 | 7.2 | 121.5 | 204.0 | 4.6 |  |  |  |  |  | 
CC(C)c1ccc(S(=O)(=O)N2CCC3(CC2)OCCN3S(=O)(=O)c2ccc(C(C)C)cc2)cc1 [Compound C0007] | 46.0 | 70.5 | 17.0 | 79.1 | 195.0 | 10.9 |  |  |  |  |  | 
N#Cc1ccc(S(=O)(=O)N2CCC3(CC2)OCCN3S(=O)(=O)c2ccc(C#N)cc2)cc1 [Compound C0008] | 41.4 | 72.9 | 4.4 | 71.2 | 201.6 | 2.8 |  |  |  |  |  | 
CS(=O)(=O)c1ccc(S(=O)(=O)N2CCC3(CC2)OCCN3S(=O)(=O)c2ccc(S(C)(=O)=O)cc2)cc1 [Compound C0009] | 85.1 | 92.6 | 41.2 | 146.3 | 256.2 | 26.4 |  |  |  |  |  | 
O=S(=O)(c1ccc(-c2ccccc2)cc1)N1CCC2(CC1)OCCN2S(=O)(=O)c1ccc(-c2ccccc2)cc1 [Compound C0010] | 80.7 | 114.9 | 135.0 | 136.5 | 307.0 | 89.1 |  |  |  |  |  | 
CC(=O)c1ccc(S(=O)(=O)N2CCC3(CC2)OCCN3S(=O)(=O)c2ccc(C(C)=O)cc2)cc1 [Compound C0011] | 126.8 | 114.3 | 36.5 |  |  |  | 217.0 | 305.0 | 19.0 | 217.0 | 305.0 | 19.0
O=S(=O)(c1ccc(C(F)(F)F)cc1)N1CCC2(CC1)OCCN2S(=O)(=O)c1ccc(C(F)(F)F)cc1 [Compound C0012] | 54.8 | 86.7 | 280.7 | 96.8 | 224.8 | 184.4 |  |  |  |  |  | 
CC(=O)Nc1ccc(S(=O)(=O)N2CCC3(CC2)OCCN3S(=O)(=O)c2ccc(NC(C)=O)cc2)cc1 [Compound C0013] | 91.0 | 108.9 | 61.8 | 156.6 | 301.2 | 39.6 |  |  |  |  |  | 
Cc1cccc(S(=O)(=O)N2CCC3(CC2)OCCN3S(=O)(=O)c2cccc(C)c2)c1 [Compound C0014] | 82.0 | 59.2 | 116.1 | 144.9 | 153.5 | 76.3 |  |  |  |  |  | 
Cc1ccccc1S(=O)(=O)N1CCC2(CC1)OCCN2S(=O)(=O)c1ccccc1C [Compound C0015] | 78.5 | 78.9 | 193.0 | 138.7 | 204.7 | 126.8 |  |  |  |  |  | 
